Results reported in article PMC4176481, “Influence of D-glutamine and D-glutamic acid sequences in optical peptide probes targeted against the cholecystokinin-2/gastrin-receptor on binding affinity, specificity and pharmacokinetic properties” (EJNMMI Research, 2013).
Where “and” joins values, the source holds several entries; their conditions need not be identical. Equal values may be shown once. Entries after “also recorded” stand apart in the source; their conditions may differ. Starred links: 1 amine or outer side, 2 acyl side, 3 side chain; linkers in the order of their positions; H or OH if unused. Positions of bridges follow the written chain, without caps; N, C: chain ends. Non-standard residues stand in square brackets, D forms with d. Residues, ends and D or L forms follow the SMILES beside them. Chains are numbered I, II in the order given. *: point of attachment. X1 = CC(C)(C)c1cc(C=CC=CC=C2N(CCCS(=O)(=O)O)c3ccc(S(=O)(=O)O)cc3C2(C)CCCC(=O)*)c2cc3c(cc2[o+]1)N(CCCS(=O)(=O)O)C(C)(C)C=C3CS(=O)(=O)[O-]; Nle = CCCC[C@H](N)C(=O)O; X2 = O=C(C[*:1])[*:2]

Legend:
A431/WT tumours = assay: In vivo NIRF imaging of CCK2R-negative xenografts; design: species or system athymic nude mice; settings: 1 to 8 h p.i.; i.v. 108 nmol/kg QE or 54 nmol/kg bivQ; n = 5
Excerpt: Female athymic nude mice (Hsd:Athymic Nude-Foxn1^nu nu/nu; Harlan Laboratories, Eystrup, Germany) were housed under standard conditions with water and food ad libitum. Mice were maintained under a low-pheophorbide diet (C 1039; Altromin, Lage, Germany) to reduce tissue autofluorescence. All procedures were approved by the regional animal committee (reg. number 02-007/10) and were in accordance with international guidelines on the ethical use of animals. Animals were anesthetized with 2% isoflurane during all procedures. […]
Xenografts were inoculated in athymic nude mice (Hsd:Athymic Nude-Foxn1^nu nu/nu; Harlan Laboratories) 10 to 15 days before imaging by subcutaneous injection of 0.5 million A431/CCK2R (left flank) and A431/WT cells (right flank) dispersed in Matrigel™ (BD Biosciences). For in vivo fluorescence imaging, 108 nmol/kg QE or 54 nmol/kg bivQ probe was injected intravenously (i.v.), according to the results of a dose determination experiment, which was set up to identify the optimal relation between sensitivity and contrast (Additional file 1). […] Another group received 108 nmol/kg of the unconjugated fluorophore DY-754 to determine dye-mediated non-specific tumour uptake, and one group remained untreated to control for probe-unrelated NIR fluorescence in the animals. […]

A431/CCK2R tumours = assay: In vivo NIRF imaging of CCK2R-expressing xenografts; design: species or system athymic nude mice; settings: for TBR, A431/CCK2R xenografts, under competition / tumour/background ratio (TBR), A431/CCK2R xenografts: 8 h p.i., mean ± SD, n = 5; for TBR, A431/CCK2R xenografts, under competition: co-injection of 10-fold molar excess of non-fluorescent minigastrin; for tumour/background ratio (TBR), A431/CCK2R xenografts: i.v. 108 nmol/kg QE or 54 nmol/kg bivQ; for TBR, CCK2R-expressing xenografts (summary bound): high-contrast imaging, discussion summary
Excerpt: Female athymic nude mice (Hsd:Athymic Nude-Foxn1^nu nu/nu; Harlan Laboratories, Eystrup, Germany) were housed under standard conditions with water and food ad libitum. Mice were maintained under a low-pheophorbide diet (C 1039; Altromin, Lage, Germany) to reduce tissue autofluorescence. All procedures were approved by the regional animal committee (reg. number 02-007/10) and were in accordance with international guidelines on the ethical use of animals. Animals were anesthetized with 2% isoflurane during all procedures. To implement subcutaneous xenografts, 5 × 10^5 CCK2R transfected (A431/CCK2R) and non-transfected wild-type cells (A431/WT) were dispensed in Matrigel™ (BD Biosciences, Heidelberg, Germany) and injected into the right (A431/CCK2R cells) and left (A431/WT cells) flank of 8- to 12-week-old animals 10 to 15 days before in vivo imaging.
Xenografts were inoculated in athymic nude mice (Hsd:Athymic Nude-Foxn1^nu nu/nu; Harlan Laboratories) 10 to 15 days before imaging by subcutaneous injection of 0.5 million A431/CCK2R […] and A431/WT cells (right flank) dispersed in Matrigel™ (BD Biosciences). For in vivo fluorescence imaging, 108 nmol/kg QE or 54 nmol/kg bivQ probe was injected intravenously (i.v.), according to the results of a dose determination experiment, which was set up to identify the optimal relation between sensitivity and contrast (Additional file 1). […] Another group received 108 nmol/kg of the unconjugated fluorophore DY-754 to determine dye-mediated non-specific tumour uptake, and one group remained untreated to control for probe-unrelated NIR fluorescence in the animals. At defined time points between 0 and 8 h p.i., NIRF fluorescence images (excitation 615 to 665 nm, emission >750 nm) and white light images of the animals were obtained. By means of spectral unmixing, tissue autofluorescence was removed from the images. Subsequently, fluorescence intensities (FI) were analysed over the time in regions of interest (ROIs) that were placed upon the tumours and non-tumour tissue. As a measure of contrast between tumour and non-tumour fluorescence, tumour/background ratios (TBRs) were calculated as a quotient of FItumour/FInon-tumour.

[1] = tested on: A431/CCK2R and A431/WT tumours; assay: Ex vivo intratumoural probe distribution in cryosections (Odyssey scanner); design: species or system athymic nude mice; settings: acetone-fixed 30-μm cryosections of explanted xenografts, three specimens/group
Excerpt: To determine intratumoural distribution of the peptide probes ex vivo, acetone-fixed 30-μm cryosections of explanted xenografts were scanned mesoscopically in the near-infrared scanner Odyssey® (LI-COR, Bad Homburg, Germany) at 700 nm (autofluorescence) and 800 nm (probe fluorescence).

[2] = Biodistribution, ex vivo NIRF of organs and xenografts 8 h p.i.; format: in vivo, athymic nude mice; settings: for uptake into A431/WT tumours (biodistribution): n = 5, comparably high for DY-754 (p > 0.05)
Procedure: We investigated the biodistribution of the optical probes and of the fluorochrome DY-754 to determine the influence of the dye on tumour and organ accumulation. Therefore, 8 h p.i., ex vivo NIRF fluorescence images of the organs and the two xenografts (A431/CCK2R and A431/WT) per mouse were taken in combination with the placement of ROIs on these organs to assess semiquantitative fluorescence intensities.

A431/WT cells = assay: Target binding in vitro, fluorescence microscopy, CCK2R-non-expressing cells; format: cell-based, human; settings: 0.5 μM, 30 min
Procedure: (§1) Binding of the optical probes QE and bivQ to CCK2R-expressing (A431/CCK2R) and CCK2R-non-expressing (A431/WT) cells was investigated after incubation with 0.5 μM of each probe in culture medium for 30 min at 4°C to observe active surface receptor binding and at 37°C to check for internalization behaviour, which is mandatory for in vivo signal amplification. Incubation with 0.5 μM of the fluorochrome DY-754 should determine the role of the interaction of the peptide with the CCK2R for probe uptake. Probe incubation was followed by cell membrane staining with wheat germ agglutinin-Alexa Fluor®-555 (WGA-555, Invitrogen, Carlsbad, CA, USA), fixation in 4% (v/v) paraformaldehyde on ice and mounting in PermaFluor® Mounting medium (Thermo Fisher, Waltham, MA, USA), containing 0.2 μg/mL Hoechst 33258 (Applichem, Darmstadt, Germany) to stain cell nuclei. Fluorescence microscopy was carried out with the digital microscope EVOSfl (AMG, Bothell, WA, USA) equipped with three filter cubes for visualization of Hoechst (excitation 335 to 379 nm, emission 417 to 477 nm), WGA-555 (excitation 511 to 551 nm, emission 573 to 613 nm) and DY-754 (excitation 690 to 730 nm, emission 752 to 798 nm).

A431/CCK2R cells = assay: Target binding and internalization in vitro, fluorescence microscopy; format: cell-based, human; settings: 0.5 μM, 30 min; for binding and internalization in A431/CCK2R cells at 37°C: n = 3
Procedure: as §1

[3] = Metabolic (protease) stability in mouse liver homogenates; format: in vitro ADME; settings: mouse liver homogenate, incubation up to 180 min, HPLC with UV/VIS detection at 750 nm, three parallels
Procedure: Supplementary file 2191-219X-3-75-S3.pptx: Additional file 3: Metabolic (protease) stability of QE and bivQ against the degradation by mouse liver homogenates. The HPLC peak of non-degraded QE at 9.7 min elution time (a-I) decreased after 180 min of probe incubation in liver homogenate, whereas a second peak, representing degradation products, appeared at 7.2 min of elution (a-II). Degradation curves of (b) QE and (c) bivQ. […] Peaks were detected at 750 nm with a UV/VIS detector. Data represent three parallels. Click here for file
Supplementary file 2191-219X-3-75-S4.pptx: Additional file 4: Metabolic stability of the optical CCK2R targeted minigastrin dQ-MG-754 [[20]]. Degradation of dQ-MG-754 for comparison with QE and bivQ. […] Probe signal was detected at 750 nm with a UV/VIS detector. Data represent three parallels. Click here for file

| Structure (SMILES) | TBR, A431/WT tumours (A431/WT tumours) | TBR, A431/CCK2R xenografts, under competition (A431/CCK2R tumours) | tumour/background ratio (TBR), A431/CCK2R xenografts (A431/CCK2R tumours) | TBR, CCK2R-expressing xenografts (summary bound) (A431/CCK2R tumours) | intratumoural fluorescence at 800 nm in tumour sections [1] | fluorescence accumulation in stomach, small intestine and colon ([2]; n = 5) | uptake in the liver compared to free DY-754 ([2]; n = 5) | uptake into A431/WT tumours (biodistribution) [2] | binding to A431/WT cells (no CCK2R expression) (A431/WT cells) | probe localisation in A431/CCK2R cells at 4°C (A431/CCK2R cells) | binding and internalization in A431/CCK2R cells at 37°C (A431/CCK2R cells) | metabolic stability against degradation by liver proteases [3] |
| --- | --- | --- | --- | --- | --- | --- | --- | --- | --- | --- | --- | --- |
| CSCC[C@H](NC(=O)[C@H](Cc1c[nH]c2ccccc12)NC(=O)CNC(=O)[C@H](Cc1ccc(O)cc1)NC(=O)[C@H](C)NC(=O)[C@@H](CCC(=O)O)NC(=O)[C@@H](CCC(N)=O)NC(=O)[C@@H](CCC(=O)O)NC(=O)[C@@H](CCC(N)=O)NC(=O)[C@@H](CCC(=O)O)NC(=O)[C@@H](CCC(N)=O)NC(=O)CCCC1(C)C(=CC=CC=Cc2cc(C(C)(C)C)[o+]c3cc4c(cc23)C(CS(=O)(=O)[O-])=CC(C)(C)N4CCCS(=O)(=O)O)N(CCCS(=O)(=O)O)c2ccc(S(=O)(=O)O)cc21)C(=O)N[C@@H](CC(=O)O)C(=O)N[C@@H](Cc1ccccc1)C(N)=O (some centres unmarked) [QE] (X1-[dQ][dE][dQ][dE][dQ][dE]AYGWMDF-NH2) | ~2 and < 2 | 4.4 ± 0.9 | 6.2 ± 1.0 | > 6 | only in the outer A431/CCK2R tumour regions | no fluorescence accumulation | weakly elevated uptake | weak uptake | no binding | restricted to the cell membrane | binding and internalization | more stable than bivQ; also recorded: highly stable |
| CCCC[C@H](NC(=O)[C@H](Cc1c[nH]c2ccccc12)NC(=O)CNC(=O)[C@H](Cc1ccc(O)cc1)NC(=O)[C@H](C)NC(=O)[C@@H](CCC(N)=O)NC(=O)[C@@H](CCC(N)=O)NC(=O)[C@@H](CCC(N)=O)NC(=O)CSC[C@H](NC(=O)CCCC1(C)C(=CC=CC=Cc2cc(C(C)(C)C)[o+]c3cc4c(cc23)C(CS(=O)(=O)[O-])=CC(C)(C)N4CCCS(=O)(=O)O)N(CCCS(=O)(=O)O)c2ccc(S(=O)(=O)O)cc21)C(=O)N[C@H](CCC(N)=O)C(=O)N[C@H](CCC(N)=O)C(=O)N[C@H](CCC(N)=O)C(=O)N[C@@H](C)C(=O)N[C@@H](Cc1ccc(O)cc1)C(=O)NCC(=O)N[C@@H](Cc1c[nH]c2ccccc12)C(=O)N[C@@H](CCCC)C(=O)N[C@@H](CC(=O)O)C(=O)N[C@@H](Cc1ccccc1)C(N)=O)C(=O)N[C@@H](CC(=O)O)C(=O)N[C@@H](Cc1ccccc1)C(N)=O (some centres unmarked) [bivQ] (I: X1-C[dQ][dQ][dQ]AYGW[Nle]DF-NH2 / II: [dQ][dQ][dQ]AYGW[Nle]DF-NH2; linker I:1-II:N via X2) | < 2 | 4.0 ± 1.2 | 6.3 ± 1.4 | > 6 | only in the outer A431/CCK2R tumour regions | no fluorescence accumulation |  | weak uptake | no binding | restricted to the cell membrane | binding and internalization | only a limited metabolic stability |
